Measured values: patent publication US10624897B2, “Chlorobenzene substituted azaaryl compounds” (TAIPEI MEDICAL UNIVERSITY, priority 2015, dated 2020)
pKd: −log10 of the molar value.

Key:
[1] = target: T1, PIKFYVE (Homo sapiens, UniProt Q9Y2I7); experiment: Lipid kinase binding assay (Kd)
T1 construct: made in house; host or cells: E. coli BL21-derived host (T7 phage) or HEK-293
Description: (§1) Kinase assays. For most assays, kinase-tagged T7 phage strains were prepared in an E. coli host derived from the BL21 strain. E. coli were grown to log-phase and infected with T7 phage and incubated with shaking at 32° C. until lysis. The lysates were centrifuged and filtered to remove cell debris. The remaining kinases were produced in HEK-293 cells and subsequently tagged with DNA for qPCR detection. […] The liganded beads were blocked with excess biotin and washed with blocking buffer (SeaBlock (Pierce), 1% BSA, 0.05% Tween 20, 1 mM DTT) to remove unbound ligand and to reduce non-specific binding. […] All reactions were performed in polystyrene 96-well plates in a final volume of 0.135 ml. […] The kinase concentration in the eluates was measured by qPCR.
(§2) An 11-point 3-fold serial dilution of each test compound was prepared in 100% DMSO at 100× final test concentration and subsequently diluted to 1× in the assay (final DMSO concentration=1%). Most Kds were determined using a compound top concentration=30,000 nM.
(§3) Binding constants (Kds) were calculated with a standard dose-response curve using the Hill equation: […]
(§4) The Hill Slope was set to −1. Curves were fitted using a non-linear least square fit with the Levenberg-Marquardt algorithm.

[2] = target: T2, PIP5K2C (Homo sapiens, UniProt Q8TBX8); experiment: Lipid kinase binding assay (Kd)
T2 construct: made in house; host or cells: E. coli BL21-derived host (T7 phage) or HEK-293
Description: as §1, §2, §3, §4

[3] = target: T3, PIK3C2G (Homo sapiens, UniProt O75747); experiment: Lipid kinase binding assay (Kd)
T3 construct: made in house; host or cells: E. coli BL21-derived host (T7 phage) or HEK-293
Description: as §1, §2, §3, §4

[4] = target: T4, PIK3C2B (Homo sapiens, UniProt O00750); experiment: Lipid kinase binding assay (Kd)
T4 construct: made in house; host or cells: E. coli BL21-derived host (T7 phage) or HEK-293
Description: as §1, §2, §3, §4

[5] = target: T5, PIP5K1A (Homo sapiens, UniProt Q99755); experiment: Lipid kinase binding assay (Kd)
T5 construct: made in house; host or cells: E. coli BL21-derived host (T7 phage) or HEK-293
Description: as §1, §2, §3, §4

[6] = target: T6, PIP5K1C (Homo sapiens, UniProt O60331); experiment: Lipid kinase binding assay (Kd)
T6 construct: made in house; host or cells: E. coli BL21-derived host (T7 phage) or HEK-293
Description: as §1, §2, §3, §4

[7] = target: T7, PIK3C3 (Homo sapiens, UniProt Q8NEB9); experiment: Lipid kinase binding assay (Kd)
T7 construct: made in house; host or cells: E. coli BL21-derived host (T7 phage) or HEK-293
Description: as §1, §2, §3, §4

[8] = target: T8, PIK3CD (Homo sapiens, UniProt O00329); experiment: Lipid kinase binding assay (Kd)
T8 construct: made in house; host or cells: E. coli BL21-derived host (T7 phage) or HEK-293
Description: as §1, §2, §3, §4

[9] = target: T9, PIP5K2B (Homo sapiens, UniProt P78356); experiment: Lipid kinase binding assay (Kd)
T9 construct: made in house; host or cells: E. coli BL21-derived host (T7 phage) or HEK-293
Description: as §1, §2, §3, §4

[10] = target: T10, PIK3CB (Homo sapiens, UniProt P42338); experiment: Lipid kinase binding assay (Kd)
T10 construct: made in house; host or cells: E. coli BL21-derived host (T7 phage) or HEK-293
Description: as §1, §2, §3, §4

[11] = target: T11, CSNK1D (Homo sapiens, UniProt P48730); experiment: Kinase binding assay (Kd)
T11 construct: made in house; host or cells: E. coli BL21-derived host (T7 phage) or HEK-293
Description: as §1, §2, §3, §4

[12] = target: T12, PLK1 (Homo sapiens, UniProt P53350); experiment: Kinase binding assay (Kd)
T12 construct: made in house; host or cells: E. coli BL21-derived host (T7 phage) or HEK-293
Description: as §1, §2, §3, §4

[13] = target: T13, EPHA2 (Homo sapiens, UniProt P29317); experiment: Kinase binding assay (Kd)
T13 construct: made in house; host or cells: E. coli BL21-derived host (T7 phage) for most kinases, HEK-293 for the rest
Description: as §1, §2, §3, §4

[14] = target: T14, ACVR1B (Homo sapiens, UniProt P36896); experiment: Kinase binding assay (Kd)
T14 construct: made in house; host or cells: E. coli BL21-derived host (T7 phage) or HEK-293
Description: as §1, §2, §3, §4

[15] = target: T15, TYK2 (Homo sapiens, UniProt P29597); experiment: Kinase binding assay (Kd)
T15 construct: made in house; host or cells: E. coli BL21-derived host (T7 phage) or HEK-293
Description: as §1, §2, §3, §4

[16] = target: T16, PDPK1 (Homo sapiens, UniProt O15530); experiment: Kinase binding assay (Kd)
T16 construct: made in house; host or cells: E. coli BL21-derived host (T7 phage) for most kinases, HEK-293 for the rest
Description: as §1, §2, §3, §4

[17] = target: T17, ERK1 (Homo sapiens, UniProt P27361); experiment: Kinase binding assay (Kd)
T17 construct: made in house; host or cells: E. coli BL21-derived host (T7 phage) for most kinases, HEK-293 for the rest
Description: as §1, §2, §3, §4

[18] = target: T18, TSSK1B (Homo sapiens, UniProt Q9BXA7); experiment: Kinase binding assay (Kd)
T18 construct: made in house; host or cells: E. coli BL21-derived host (T7 phage) or HEK-293
Description: as §1, §2, §3, §4

[19] = target: T19, MKNK1 (Homo sapiens, UniProt Q9BUB5); experiment: Kinase binding assay (Kd)
T19 construct: made in house; host or cells: E. coli BL21-derived host (T7 phage) for most kinases, HEK-293 for the rest
Description: as §1, §2, §3, §4

[20] = target: T20, MET (Homo sapiens, UniProt P08581); experiment: Kinase binding assay (Kd)
T20 construct: made in house; host or cells: E. coli BL21-derived host (T7 phage) for most kinases, HEK-293 for the rest
Description: as §1, §2, §3, §4

[21] = target: T21, ADCK3 (Homo sapiens, UniProt Q8NI60); experiment: Kinase binding assay (Kd)
T21 construct: made in house; host or cells: E. coli BL21-derived host (T7 phage) or HEK-293
Description: as §1, §2, §3, §4

[22] = target: T22, DCAMKL1 (Homo sapiens, UniProt O15075); experiment: Kinase binding assay (Kd)
T22 construct: made in house; host or cells: E. coli BL21-derived host (T7 phage) or HEK-293
Description: as §1, §2, §3, §4

[23] = target: T23, FGFR2 (Homo sapiens, UniProt P21802); experiment: Kinase binding assay (Kd)
T23 construct: made in house; host or cells: E. coli BL21-derived host (T7 phage) or HEK-293
Description: as §1, §2, §3, §4

[24] = target: T24, VEGFR2 (Homo sapiens, UniProt P35968); experiment: Kinase binding assay (Kd)
T24 construct: made in house; host or cells: E. coli BL21-derived host (T7 phage) or HEK-293
Description: as §1, §2, §3, §4

[25] = target: T25, BMPR2 (Homo sapiens, UniProt Q13873); experiment: Kinase binding assay (Kd)
T25 construct: made in house; host or cells: E. coli BL21-derived host (T7 phage) or HEK-293
Description: as §1, §2, §3, §4

[26] = target: T26, BRAF (Homo sapiens, UniProt P15056); experiment: Kinase binding assay (Kd)
T26 construct: made in house; host or cells: E. coli BL21-derived host (T7 phage) or HEK-293
Description: as §1, §2, §3, §4

[27] = target: T27, PIM2 (Homo sapiens, UniProt Q9P1W9); experiment: Kinase binding assay (Kd)
T27 construct: made in house; host or cells: E. coli BL21-derived host (T7 phage) for most kinases, HEK-293 for the rest
Description: as §1, §2, §3, §4

[28] = target: T28, p38-alpha (Homo sapiens, UniProt Q16539); experiment: Kinase binding assay (Kd)
T28 construct: made in house; host or cells: E. coli BL21-derived host (T7 phage) for most kinases, HEK-293 for the rest
Description: as §1, §2, §3, §4

[29] = target: T29, AKT2 (Homo sapiens, UniProt P31751); experiment: Kinase binding assay (Kd)
T29 construct: made in house; host or cells: E. coli BL21-derived host (T7 phage) or HEK-293
Description: as §1, §2, §3, §4

[30] = target: T30, LKB1 (Homo sapiens, UniProt Q15831); experiment: Kinase binding assay (Kd)
T30 construct: made in house; host or cells: E. coli BL21-derived host (T7 phage) for most kinases, HEK-293 for the rest
Description: as §1, §2, §3, §4

[31] = target: T31, MAPKAPK2 (Homo sapiens, UniProt P49137); experiment: Kinase binding assay (Kd)
T31 construct: made in house; host or cells: E. coli BL21-derived host (T7 phage) for most kinases, HEK-293 for the rest
Description: as §1, §2, §3, §4

[32] = test system: RT-112 cells; experiment: Cell cycle distribution by flow cytometry; format: cell-based; conditions: 48 h to 72 h, FIG. 3A
[33] = test system: RT-112, RT4 and T24 cells; experiment: MTT assay, bladder cancer cells with different FGFR3 status; format: cell-based; conditions: 72 h, FIG. 1A
Description: Cell viability was assessed the MTT assay. […] Data are expressed as means±S.D. (***P<0.001 compares to control group).
BGJ-398, a known selective inhibitor of FGFR1 to FGFR3, was included as a reference compound. […] The major downstream pathways of FGFRs are MAPK, PI3K/AKT, and PLC-γ. RT-112 cells, which express FGFR3-TACC3, are reportedly unable to activate PLCγ due to a deletion of the last exon of FGFR3.

T25 sequence (Q13873 27-1038): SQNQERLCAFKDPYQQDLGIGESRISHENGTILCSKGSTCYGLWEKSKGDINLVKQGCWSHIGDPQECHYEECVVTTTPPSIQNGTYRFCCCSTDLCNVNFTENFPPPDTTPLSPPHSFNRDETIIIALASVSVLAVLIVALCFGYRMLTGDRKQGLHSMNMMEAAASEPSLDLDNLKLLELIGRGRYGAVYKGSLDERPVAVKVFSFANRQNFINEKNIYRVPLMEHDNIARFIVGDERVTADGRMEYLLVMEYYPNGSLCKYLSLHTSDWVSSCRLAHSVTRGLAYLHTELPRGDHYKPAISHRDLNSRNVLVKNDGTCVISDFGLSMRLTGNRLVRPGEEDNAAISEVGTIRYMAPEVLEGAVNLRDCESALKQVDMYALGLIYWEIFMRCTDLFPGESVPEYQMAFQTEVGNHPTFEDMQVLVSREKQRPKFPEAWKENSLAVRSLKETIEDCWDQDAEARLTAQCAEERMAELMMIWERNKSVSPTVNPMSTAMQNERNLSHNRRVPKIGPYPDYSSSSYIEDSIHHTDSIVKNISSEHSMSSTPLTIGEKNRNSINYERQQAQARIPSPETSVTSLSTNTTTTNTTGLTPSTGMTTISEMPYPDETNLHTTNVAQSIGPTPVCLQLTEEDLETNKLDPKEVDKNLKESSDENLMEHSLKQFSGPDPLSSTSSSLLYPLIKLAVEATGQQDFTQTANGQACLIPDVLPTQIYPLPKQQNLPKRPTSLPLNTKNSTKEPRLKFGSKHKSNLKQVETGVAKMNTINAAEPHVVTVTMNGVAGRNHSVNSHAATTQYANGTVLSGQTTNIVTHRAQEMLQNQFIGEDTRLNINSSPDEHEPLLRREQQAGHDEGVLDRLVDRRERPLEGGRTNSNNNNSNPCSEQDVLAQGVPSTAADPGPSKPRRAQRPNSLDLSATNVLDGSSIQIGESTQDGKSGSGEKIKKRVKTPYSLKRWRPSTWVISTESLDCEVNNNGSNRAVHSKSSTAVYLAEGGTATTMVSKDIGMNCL
T12 sequence (P53350 whole entry): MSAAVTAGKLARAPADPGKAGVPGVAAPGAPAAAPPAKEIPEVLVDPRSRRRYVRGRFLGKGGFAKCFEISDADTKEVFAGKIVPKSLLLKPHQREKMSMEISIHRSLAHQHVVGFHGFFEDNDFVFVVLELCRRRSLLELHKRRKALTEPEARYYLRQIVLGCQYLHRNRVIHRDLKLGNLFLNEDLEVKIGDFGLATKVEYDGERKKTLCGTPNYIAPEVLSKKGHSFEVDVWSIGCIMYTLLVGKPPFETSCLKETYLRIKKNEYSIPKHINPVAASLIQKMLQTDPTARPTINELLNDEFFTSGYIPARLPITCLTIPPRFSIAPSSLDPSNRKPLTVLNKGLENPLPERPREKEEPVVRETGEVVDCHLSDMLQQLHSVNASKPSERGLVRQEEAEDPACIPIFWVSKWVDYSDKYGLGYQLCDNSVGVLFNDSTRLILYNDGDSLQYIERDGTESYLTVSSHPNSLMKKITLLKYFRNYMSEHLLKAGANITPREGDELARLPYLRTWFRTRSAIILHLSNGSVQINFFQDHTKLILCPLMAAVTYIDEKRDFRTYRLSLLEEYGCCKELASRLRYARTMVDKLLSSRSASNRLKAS
T17 sequence (P27361 whole entry): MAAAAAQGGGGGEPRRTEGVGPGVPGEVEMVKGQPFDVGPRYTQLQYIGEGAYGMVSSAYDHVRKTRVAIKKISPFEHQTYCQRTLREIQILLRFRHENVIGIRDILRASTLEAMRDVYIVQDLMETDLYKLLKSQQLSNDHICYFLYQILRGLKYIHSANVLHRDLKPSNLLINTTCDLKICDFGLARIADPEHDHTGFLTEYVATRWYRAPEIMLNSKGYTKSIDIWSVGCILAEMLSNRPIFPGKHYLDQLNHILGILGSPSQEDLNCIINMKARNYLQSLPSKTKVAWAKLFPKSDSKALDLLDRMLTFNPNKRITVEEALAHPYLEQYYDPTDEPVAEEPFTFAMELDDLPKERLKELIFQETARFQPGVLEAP
T10 sequence (P42338 whole entry): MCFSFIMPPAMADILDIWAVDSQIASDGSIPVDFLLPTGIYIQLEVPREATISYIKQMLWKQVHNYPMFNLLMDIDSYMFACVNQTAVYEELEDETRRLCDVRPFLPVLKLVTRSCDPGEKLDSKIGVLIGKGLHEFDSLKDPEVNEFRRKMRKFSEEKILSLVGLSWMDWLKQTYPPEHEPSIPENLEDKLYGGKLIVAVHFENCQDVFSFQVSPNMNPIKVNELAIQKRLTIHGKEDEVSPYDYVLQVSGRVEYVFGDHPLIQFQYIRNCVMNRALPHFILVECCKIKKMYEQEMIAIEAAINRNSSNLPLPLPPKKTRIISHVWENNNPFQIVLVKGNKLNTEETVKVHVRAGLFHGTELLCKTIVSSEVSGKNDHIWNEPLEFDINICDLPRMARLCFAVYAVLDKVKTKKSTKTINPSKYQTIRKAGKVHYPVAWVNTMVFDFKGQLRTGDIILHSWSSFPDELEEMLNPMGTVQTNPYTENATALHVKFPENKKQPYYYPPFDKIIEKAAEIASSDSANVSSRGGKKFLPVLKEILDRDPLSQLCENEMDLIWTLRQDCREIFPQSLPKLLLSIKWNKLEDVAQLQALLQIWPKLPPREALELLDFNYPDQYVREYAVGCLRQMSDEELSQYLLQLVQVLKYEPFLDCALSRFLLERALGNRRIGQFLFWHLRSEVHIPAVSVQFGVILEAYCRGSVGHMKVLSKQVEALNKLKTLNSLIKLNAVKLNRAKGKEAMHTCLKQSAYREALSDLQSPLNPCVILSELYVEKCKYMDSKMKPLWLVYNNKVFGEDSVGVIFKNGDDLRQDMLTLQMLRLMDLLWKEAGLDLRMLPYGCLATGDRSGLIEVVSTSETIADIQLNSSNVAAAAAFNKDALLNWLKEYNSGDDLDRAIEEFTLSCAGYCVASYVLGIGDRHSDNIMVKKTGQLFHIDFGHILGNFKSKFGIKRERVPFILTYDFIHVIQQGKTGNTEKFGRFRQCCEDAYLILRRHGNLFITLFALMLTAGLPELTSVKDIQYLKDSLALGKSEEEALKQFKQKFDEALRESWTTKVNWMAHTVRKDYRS
T13 sequence (P29317 24-976): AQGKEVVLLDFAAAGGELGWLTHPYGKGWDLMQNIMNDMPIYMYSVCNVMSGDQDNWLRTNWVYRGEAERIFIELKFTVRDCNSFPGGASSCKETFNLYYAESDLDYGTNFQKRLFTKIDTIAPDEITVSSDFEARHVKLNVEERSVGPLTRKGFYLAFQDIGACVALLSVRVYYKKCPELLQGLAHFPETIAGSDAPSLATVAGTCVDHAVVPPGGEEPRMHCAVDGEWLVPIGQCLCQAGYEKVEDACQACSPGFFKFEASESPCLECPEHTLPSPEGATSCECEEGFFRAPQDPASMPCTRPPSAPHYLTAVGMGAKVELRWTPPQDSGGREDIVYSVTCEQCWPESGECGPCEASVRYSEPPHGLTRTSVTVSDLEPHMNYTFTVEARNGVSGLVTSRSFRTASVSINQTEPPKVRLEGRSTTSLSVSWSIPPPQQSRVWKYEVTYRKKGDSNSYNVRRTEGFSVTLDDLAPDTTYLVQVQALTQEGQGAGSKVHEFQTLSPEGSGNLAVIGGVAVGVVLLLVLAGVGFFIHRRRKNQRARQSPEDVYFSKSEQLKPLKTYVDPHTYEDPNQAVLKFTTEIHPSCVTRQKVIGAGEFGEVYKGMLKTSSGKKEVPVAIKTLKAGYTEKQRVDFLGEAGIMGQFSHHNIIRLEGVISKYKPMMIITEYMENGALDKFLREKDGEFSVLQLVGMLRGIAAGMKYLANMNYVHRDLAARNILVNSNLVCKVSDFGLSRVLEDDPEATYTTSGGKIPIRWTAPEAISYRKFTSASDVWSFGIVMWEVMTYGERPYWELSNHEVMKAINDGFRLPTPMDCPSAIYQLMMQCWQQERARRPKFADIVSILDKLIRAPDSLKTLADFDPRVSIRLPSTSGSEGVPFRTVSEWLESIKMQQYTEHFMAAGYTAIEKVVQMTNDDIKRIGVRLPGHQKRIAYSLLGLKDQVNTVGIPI
T16 sequence (O15530 whole entry): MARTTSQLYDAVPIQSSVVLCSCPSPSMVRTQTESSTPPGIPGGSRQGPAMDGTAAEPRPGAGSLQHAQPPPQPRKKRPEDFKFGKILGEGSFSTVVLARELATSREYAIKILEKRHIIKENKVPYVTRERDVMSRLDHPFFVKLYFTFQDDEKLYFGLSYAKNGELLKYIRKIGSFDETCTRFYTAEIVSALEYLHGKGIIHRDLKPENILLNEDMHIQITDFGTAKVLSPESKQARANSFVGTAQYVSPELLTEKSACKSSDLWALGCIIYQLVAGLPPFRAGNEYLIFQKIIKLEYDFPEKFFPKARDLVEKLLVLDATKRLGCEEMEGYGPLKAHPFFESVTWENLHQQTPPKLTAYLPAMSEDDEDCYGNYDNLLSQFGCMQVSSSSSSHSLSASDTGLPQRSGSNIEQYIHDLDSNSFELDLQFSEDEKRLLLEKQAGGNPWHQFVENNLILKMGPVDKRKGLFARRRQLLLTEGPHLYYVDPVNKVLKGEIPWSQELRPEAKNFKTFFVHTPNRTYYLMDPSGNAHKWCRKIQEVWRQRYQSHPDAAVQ
T19 sequence (Q9BUB5 whole entry): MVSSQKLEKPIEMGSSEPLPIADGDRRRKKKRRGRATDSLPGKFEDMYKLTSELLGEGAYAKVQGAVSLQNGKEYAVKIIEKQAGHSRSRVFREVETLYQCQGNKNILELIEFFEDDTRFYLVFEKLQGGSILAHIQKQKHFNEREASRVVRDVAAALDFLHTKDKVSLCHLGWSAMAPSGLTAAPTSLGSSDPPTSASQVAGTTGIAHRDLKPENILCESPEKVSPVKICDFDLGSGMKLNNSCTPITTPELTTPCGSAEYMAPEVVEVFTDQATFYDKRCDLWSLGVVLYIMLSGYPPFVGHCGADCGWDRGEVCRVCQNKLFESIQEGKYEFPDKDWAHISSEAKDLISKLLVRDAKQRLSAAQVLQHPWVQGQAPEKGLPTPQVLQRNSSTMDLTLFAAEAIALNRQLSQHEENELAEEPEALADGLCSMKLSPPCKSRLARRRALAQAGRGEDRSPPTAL

pKd [1]: 5.59
pKd [2]: < 5.00
pKd [3]: < 5.00
pKd [4]: 6.00
pKd [5]: < 5.00
pKd [6]: < 5.00
pKd [7]: 9.28
pKd [8]: < 5.00
pKd [9]: < 5.00
pKd [10]: < 5.00
pKd [11]: < 5.00
pKd [12]: < 5.00
pKd [13]: < 5.00
pKd [14]: < 5.00
pKd [15]: 6.18
pKd [16]: < 5.00
pKd [17]: < 5.00
pKd [18]: < 5.00
pKd [19]: < 5.00
pKd [20]: < 5.00
pKd [21]: < 5.00
pKd [22]: < 5.00
pKd [23]: 6.17
pKd [24]: 5.51
pKd [25]: < 5.00
pKd [26]: < 5.00
pKd [27]: < 5.00
pKd [28]: < 5.00
pKd [29]: < 5.00
pKd [30]: < 5.00
pKd [31]: < 5.00
Structure (SMILES): CCN1CCN(c2ccc(Nc3ncnc(N(C)C(=O)Nc4c(Cl)c(OC)c(Cl)c(OC)c4Cl)n3)cc2)CC1 [MPT0L145, 1-(4-((4-(4-ethylpiperazin-1-yl)phenyl)amino)-1,3,5-triazin-2-yl)-1-methyl-3-(2,4,6-trichloro-3,5-dimethoxyphenyl)urea]
accumulation of the sub-G1 phase (apoptotic cell death) [32]: did not promote accumulation of the sub-G1 phase
sensitivity of FGFR3-TACC3 fusion cells (RT-112, RT4) versus normal FGFR3 status (T24) [33]: more sensitive
